Measured values from patent publication US8952018B2, “Pharmaceutical combination of MEK inhibitor and B-Raf inhibitors” (GlaxoSmithKline LLC, priority 2009, dated 2015).
Where two headings read alike, the source gives them in different places.

Experiments:
[1] = tested on: SW837; test: Cell growth inhibition assay (Cell Titer Glo) and combination data analysis; type: cell-based; conditions: Homo sapiens, 72 h, Colon, KRAS_G12C, 3 days
[2] = tested on: HCT-8; test: as above; type: cell-based; conditions: Homo sapiens, 72 h, Colon, KRAS_G13D, 3 days
[3] = tested on: 12R8-3; test: as above; type: cell-based; conditions: Homo sapiens, A375P-F11, 72 h, Melanoma, resistant clone of A375 PF11, BRAF_V600E, 3 days
Method: (§6) Cell growth inhibition assay and combination data analysis—All cells were cultured for a minimum of 72 hours prior to cell plating. Cells were assayed in a 96-well tissue culture plate (NUNC 136102) of RPMI medium containing 10% FBS for all cells at 1,000 cells per well. Approximately 24 hours after plating, cells were exposed to ten, three-fold serial dilutions of compound or the combination of the two agents at a constant molar to molar ratio of 1:10 Compound A (DMSO solvate) to Compound B (free form) in RPMI media containing 10% FBS. Concentrations tested for Compound A were 1 μM-0.05 nM and for Compound B were 10 μM-0.5 nM. Cells were incubated in the presence of compounds for 3 days. ATP levels were determined by adding Cell Titer Glo® (Promega) according to the manufacturer's protocol. Briefly, Cell Titer Glo® was added each plate, incubated for 30 minutes then luminescent signal was read on the SpectraMax L plate reader with a 0.5 sec integration time.

[4] = tested on: 12R5-3; test: as above; type: cell-based; conditions: Homo sapiens, A375P-F11, 72 h, Melanoma, resistant clone of A375 PF11, BRAF_V600E, 3 days
Method: as §6

[5] = tested on: 12R5-1; test: as above; type: cell-based; conditions: Homo sapiens, A375P-F11, 72 h, Melanoma, resistant clone of A375 PF11, BRAF_V600E, 3 days
Method: (§7) Cell growth inhibition assay and combination data analysis—All cells were cultured for a minimum of 72 hours prior to cell plating. Cells were assayed in a 96-well tissue culture plate (NUNC 136102) of RPMI medium containing 10% FBS for all cells at 1,000 cells per well. Approximately 24 hours after plating, cells were exposed to ten, three-fold serial dilutions of compound or the combination of the two agents at a constant molar to molar ratio of 1:10 Compound A (DMSO solvate) to Compound B (free form) in RPMI media containing 10% FBS. Concentrations tested for Compound A were 1 μM-0.05 nM and for Compound B were 10 μM-0.5 nM. […] ATP levels were determined by adding Cell Titer Glo® (Promega) according to the manufacturer's protocol. Briefly, Cell Titer Glo® was added each plate, incubated for 30 minutes then luminescent signal was read on the SpectraMax L plate reader with a 0.5 sec integration time.

[6] = tested on: 12R8-1; test: as above; type: cell-based; conditions: Homo sapiens, A375P-F11, 72 h, Melanoma, resistant clone of A375 PF11, BRAF_V600E, 3 days
Method: as §6

[7] = tested on: 16R6-4; test: as above; type: cell-based; conditions: Homo sapiens, A375P-F11, 72 h, Melanoma, resistant clone of A375 PF11, BRAF_V600E, 3 days
Method: as §7

[8] = tested on: A375PF11; test: as above; type: cell-based; conditions: Homo sapiens, A375P-F11, 72 h, Melanoma, BRAF_V600E, 3 days, mean ± std
Method: as §6

[9] = tested on: 16R6-3; test: as above; type: cell-based; conditions: Homo sapiens, A375P-F11, 72 h, Melanoma, resistant clone of A375 PF11, BRAF_V600E, 3 days
Method: as §7

[10] = tested on: SW1463; test: as above; type: cell-based; conditions: Homo sapiens, 72 h, Colon, KRAS_G12C, 3 days
Method: as §6

[11] = tested on: HT-29; test: as above; type: cell-based; conditions: Homo sapiens, 72 h, Colon, BRAF_V600E, 3 days, mean ± std
Text: (§8) EOHSA values are defined as increases in improvement (here, in ‘percentage points’ (ppts) difference) produced by the combination over the best single agent at its component dose level for the combination. For single agent and combination treatments, cells were exposed to compounds at a fixed-dose-ratio, and dose response curves were fit to the experimental data and analyzed using regression models. […]

[12] = tested on: Colo-205; test: as above; type: cell-based; conditions: Homo sapiens, 72 h, Colon, BRAF_V600E, 3 days, mean ± std
Text: as §8

[13] = tested on: NCI-H508; test: as above; type: cell-based; conditions: Homo sapiens, 72 h, Colon, BRAF_G596R, 3 days
[14] = tested on: LS-1034; test: as above; type: cell-based; conditions: Homo sapiens, 72 h, Colon, KRAS_A146T, 3 days
[15] = tested on: melanoma lines 16R5-2, 16R6-4 and 12R5-1; test: Cell growth inhibition assay, summary of Table 3; type: cell-based, human; conditions: 16R5-2, 16R6-4, 12R5-1; compound alone
Method: Cell lines and growth conditions—Human colon tumor lines, Colo-205, DLD-1, HCT-8, HT-29, LS-1034, NCI-H508, RKO, SW1417, SW1463, SW480 and SW837, and human melanoma line A375 were from ATCC. A375 PF11 was derived from A375.
Cell growth inhibition assay and combination data analysis—All cells were cultured for a minimum of 72 hours prior to cell plating. Cells were assayed in a 96-well tissue culture plate (NUNC 136102) of RPMI medium containing 10% FBS for all cells at 1,000 cells per well. […] ATP levels were determined by adding Cell Titer Glo® (Promega) according to the manufacturer's protocol. Briefly, Cell Titer Glo® was added each plate, incubated for 30 minutes then luminescent signal was read on the SpectraMax L plate reader with a 0.5 sec integration time.
Inhibition of cell growth was estimated after treatment with compound or combination of compounds for three days and comparing the signal to cells treated with vehicle (DMSO). Cell growth was calculated relative to vehicle (DMSO) treated control wells. […]
The combination effects on the response scale were quantified by Excess Over Highest Single Agent (EOHSA) based on the concept of nonlinear blending as described in detail by Peterson and Novick (2007) and Peterson (2010) [(2;3) [Peterson and Novick, 2007; Peterson, 2010]. […]

[16] = tested on: SW480; test: Cell growth inhibition assay (Cell Titer Glo) and combination data analysis; type: cell-based; conditions: Homo sapiens, 72 h, Colon, KRAS_G12C, 3 days
[17] = tested on: melanoma lines 12R8-3, 12R8-1, 12R5-3, and 16R6-3; test: Cell growth inhibition assay, summary of Table 3; type: cell-based; conditions: Homo sapiens; range over 12R8-3, 12R8-1, 12R5-3, 16R6-3; read-out: IC50, single agent
[18] = tested on: DLD1; test: Cell growth inhibition assay (Cell Titer Glo) and combination data analysis; type: cell-based; conditions: Homo sapiens, DLD-1, 72 h, Colon, KRAS_G13D, 3 days
Text: as §8

[19] = tested on: RKO; test: as above; type: cell-based; conditions: Homo sapiens, 72 h, Colon, BRAF_V600E, 3 days, mean ± std
Text: as §8

[20] = tested on: SW1417; test: as above; type: cell-based; conditions: Homo sapiens, 72 h, Colon, BRAF_V600E, 3 days, mean ± std
Text: as §8

[21] = tested on: 16R5-2; test: as above; type: cell-based; conditions: Homo sapiens, A375P-F11, 72 h, Melanoma, resistant clone of A375 PF11, BRAF_V600E, 3 days
Method: as §7

[22] = tested on: seven colon lines without BRAF V600E mutation (either with BRAF G596R or KRAS mutations); test: Cell growth inhibition assay, summary of Table 3; type: cell-based; conditions: Homo sapiens
Method: (§1) A375 PF11 was derived from A375.
(§2) Cell growth inhibition assay and combination data analysis—All cells were cultured for a minimum of 72 hours prior to cell plating. […] Cells were incubated in the presence of compounds for 3 days. ATP levels were determined by adding Cell Titer Glo® (Promega) according to the manufacturer's protocol. Briefly, Cell Titer Glo® was added each plate, incubated for 30 minutes then luminescent signal was read on the SpectraMax L plate reader with a 0.5 sec integration time.
(§3) Inhibition of cell growth was estimated after treatment with compound or combination of compounds for three days and comparing the signal to cells treated with vehicle (DMSO). Cell growth was calculated relative to vehicle (DMSO) treated control wells.
(§4) In general, a CI value <0.9, between 0.9 and 1.1, or >1.1 indicates synergy, additivity and antagonism, respectively. In general, the smaller the Cl number, the greater is the strength of synergy.
(§5) EOHSA values are defined as increases in improvement (here, in ‘percentage points’ (ppts) difference) produced by the combination over the best single agent at its component dose level for the combination. For single agent and combination treatments, cells were exposed to compounds at a fixed-dose-ratio, and dose response curves were fit to the experimental data and analyzed using regression models. At specified total dose levels of IC50 along the dose response curve, the dose combination (corresponding to IC50) was determined for making EOHSA statistical inferences.

[23] = tested on: four colon cell lines with BRAF V600E mutation; test: Cell growth inhibition assay, summary of Table 3; type: cell-based; conditions: Homo sapiens, read-out: IC50 values, single agent
Method: as §1, §2, §3, §4, §5

[24] = mean ± std, read-out: IC50 Single Agent Compound A
[25] = read-out: IC50 Single Agent Compound A
[26] = read-out: IC50 Single Agent Compound B

CC(=O)Nc1cccc(-n2c(=O)n(C3CC3)c(=O)c3c(Nc4ccc(I)cc4F)n(C)c(=O)c(C)c32)c1 [Compound A, N-{3-[3-cyclopropyl-5-(2-fluoro-4-iodo-phenylamino)6,8-dimethyl-2,4,7-trioxo-3,4,6,7-tetrahydro-2H-pyrido[4,3-d]pyrimidin-1-yl]phenyl}acetamide] gave an IC50 [1, 24] of 93 ± 63 nM, an IC50 [2, 24] of 50 ± 11 nM and an IC50 [3, 24] of 59 ± 37 nM. For the same compound, the IC50 [4, 24] was 92 ± 52 nM, the IC50 [5, 25] was over 1000 nM and the IC50 [6, 24] was 58 ± 30 nM. The IC50 [7, 25] was over 1000 nM, the IC50 [8, 25] was 1 nM and the IC50 [9, 24] was 109 ± 22 nM. The IC50 [10, 24] was 5 ± 4 nM, the IC50 [11, 25] was 1 ± 1 nM and the IC50 [12, 25] was 1 nM. For the same compound, the IC50 [13, 24] was 10 ± 5 nM, the IC50 [14, 24] was 11 ± 7 nM and the “sensitivity to single agent” value [15] was “resistant or insensitive”. For the same compound, the IC50 [16, 24] was 42 ± 3 nM, the IC50 [17] was 58 to 109 nM and the IC50 [18, 24] was 557 ± 393 nM. The IC50 [19, 25] was 25 ± 7 nM, the IC50 [20, 25] was 3 ± 2 nM and the IC50 [21, 25] was over 1000 nM. For the same compound, the IC50 ([22]; six out of the seven colon lines without BRAF V600E mutation, read-out: IC50s, single agent) was 1 to 93 nM and the IC50 ([23]; range over the four colon cell lines with BRAF V600E mutation) was 1 to 25 nM.

CC(C)(C)c1nc(-c2cccc(NS(=O)(=O)c3c(F)cccc3F)c2F)c(-c2ccnc(N)n2)s1 [Compound B, N-{3-[5-(2-Amino-4-pyrimidinyl)-2-(1,1-dimethylethyl)-1,3-thiazol-4-yl]-2-fluorophenyl}-2,6-difluorobenzenesulfonamide] showed an IC50 [1, 26] of over 10000 nM, an IC50 [2, 26] of over 10000 nM and an IC50 [3, 26] of over 10000 nM. The IC50 [4, 26] was over 10000 nM, the IC50 [5, 26] was over 10000 nM and the IC50 [6, 26] was over 10000 nM. It also gave an IC50 [7, 26] of over 10000 nM, an IC50 [8, 26] of 12 nM and an IC50 [9, 26] of over 10000 nM. For the same compound, the IC50 [10, 26] was over 10000 nM, the IC50 [11, 26] was 22 ± 22 nM and the IC50 [12, 26] was 18 ± 13 nM. The IC50 [13, 26] was over 10000 nM, the IC50 [14, 26] was over 10000 nM and the “sensitivity to single agent” value [15] was “resistant or insensitive”. The IC50 [16, 26] was over 10000 nM, the IC50 [17] was over 10000 nM and the IC50 [18, 26] was over 10000 nM. It also gave an IC50 [19, 26] of 5650 ± 3900 nM, an IC50 [20, 26] of 203 ± 15 nM and an IC50 [21, 26] of over 10000 nM. The IC50 ([22]; read-out: IC50, single agent) was over 10000 nM and the IC50 [23] was 18 to 5650 nM.
